4 compounds from article PMC10747733, “N-Substituted 2-(Benzenosulfonyl)-1-Carbotioamide Derivatives Exert Antimicrobial and Cytotoxic Effects via Aldehyde Dehydrogenase Pathway: Synthesis, In Silico and In Vitro Studies” (Pharmaceuticals, 2023) can be followed below.

≈ marks a conversion by molar mass, not a printed value. Where “and” joins values, the source holds several entries; their conditions need not be identical. Equal entries are not always repeated. Entries after “also recorded” stand apart in the source; their conditions may differ.

For orientation: MIC means the least concentration at which growth counts as inhibited. Low readings indicate greater potency, high ones weaker potency. What is called MFC is the smallest concentration meeting the test's criterion for killing the fungus.

For one assay, the system named is Candida spp. In words: Broth microdilution, summary over reference Candida spp. The class given is cell-based. As to conditions: for MFC: Candida, yeasts; for MFC/MIC: reference yeasts, except WZ4 towards C. parapsilosis. An excerpt: Reference strains of microorganisms that came from American Type Culture Collection (ATCC) (Manassas, VA, USA) were used for this study. The representative Gram-positive bacteria were as follows: Staphylococcus aureus ATCC 25923, Staphylococcus aureus ATCC 29213, Staphylococcus aureus ATCC 43300, Staphylococcus epidermidis ATCC 12228, Enterococcus faecalis ATCC 29212, Micrococcus luteus ATCC 10240, Bacillus subtilis ATCC 6633 and Bacillus cereus ATCC 10876. While, those of Gram-negative bacteria were as follows: Bordetella bronchiseptica ATCC 4617, Escherichia coli ATCC 25922, Klebsiella pneumoniae ATCC 13883, Proteus mirabilis ATCC 12453, Salmonella Typhimurium ATCC 14028 and Pseudomonas aeruginosa ATCC 9027. Moreover, the following fungi belonging to yeasts were used: Candida albicans ATCC 10231, Candida albicans ATCC 2091, Candida parapsilosis ATCC 22019, Candida glabrata ATCC 90030 and Candida krusei ATCC 14243.
The new compounds WZ1–WZ4 were assayed for both antibacterial and antifungal activity using the broth microdilution method in accordance with the European Committee on Antimicrobial Susceptibility Testing (EUCAST) and Clinical and Laboratory Standards Institute (CLSI) guidelines. The microorganisms were grown at 35 °C for 18–24 h on appropriate media (nutrient agar and Sabouraud for bacteria and fungi, respectively) (BioMaxima S.A., Lublin, Poland). Next, microbial suspensions with an optical density of 0.5 McFarland standard scale (in sterile 0.85% NaCl) were prepared. In turn, the tested compounds were initially diluted at 50 mg/mL in dimethyl sulfoxide (DMSO) and the broth microdilution method was used to assess their minimum inhibitory concentrations (MICs). For these studies, selective broth Mueller-Hinton (MH) (BioMaxima S.A., Lublin, Poland) and RPMI (Roswell Park Memorial Institute) 1640 with MOPS (3-(N-Morpholino)propanesulfonic acid) (Sigma-Aldrich Chemicals, St. Louis, MO, USA) were used for bacteria and fungi, respectively. The antimicrobial effect of compounds WZ1–WZ4 was determined in the concentration range from 2000 to 0.98 µg/mL.
Then, the microbial suspensions were introduced into each well of the microplate and incubated for 18–24 h at 35 °C. […] The reference drugs ciprofloxacin or vancomycin (against bacteria) and nystatin (against fungi) (Sigma-Aldrich Chemicals, St. Louis, MO, USA) were also used. Next, the values of the minimum bactericidal concentration (MBC) and minimum fungicidal concentration (MFC) of WZ1–WZ4 were assessed. For this purpose, the cultures from each MIC determination well were transferred to a suitable solid medium and incubated under appropriate conditions. The lowest concentrations of compounds without microbial growth were read as MBC or MFC. The studies were performed in triplicate and representative data were gathered.
In turn, the MBC/MIC or MFC/MIC ratios were used to assess bactericidal/fungicidal (MBC/MIC or MFC/MIC ≤ 4) and bacteriostatic/fungistatic (MBC/MIC or MFC/MIC > 4) effect of these compounds [93].

For assay [1], the system named is AGS (gastric adenocarcinoma). In words: MTT antiproliferative activity assay. The class given is cell-based, human. To be noted: for decrease in viability: AGS; for TI after 24h / TI after 48h: IC50 WS1 / IC50 AGS. The protocol: (§1) Cancer cell lines originating from different organs, i.e., AGS (stomach—gastric adenocarcinoma), HepG2 (hepatocellular carcinoma), Du145, PC3 (prostate cancer), 769-P (renal cell carcinoma) and physiology cell line WS1 (fibroblasts), were purchased from ATCC. The cell cultures were carried out in an appropriate medium (DMEM or MEM) containing 10% heat-inactivated FBS with penicillin (100 U/mL) and streptomycin (100 U/mL). The cells were kept in a humidified incubator at 37 °C and 5% CO2 and passaged three times before experimenting.
(§2) The antiproliferative properties test for each cancer line was performed in 96-well plates, in which cells with a density of 2 × 10^4 were seeded in 100 µL of medium containing 10% FBS. After 24 h of allowing the cells to attach, the wells were washed with DPBS (Dulbecco’s phosphate-buffered saline) solution and the cells were incubated in fresh medium w/o FBS containing 1 µM, 10 µM, 50 µM, 200 µM or 500 µM of the tested compounds for 24 and 48 h. All substances were first dissolved in DMSO to prepare stock solutions that were then diluted in the medium to obtain a maximum of 0.1% w/v DMSO in the final solution. Each concentration was tested in triplicate. DMSO at a concentration of 0.1% in the medium was also used as a negative control. The antiproliferative activity of the compounds was tested using the MTT test. After each incubation time, the medium containing the test compounds and the negative control was removed, the cells were washed with DPBS solution, and then 100 µL of FBS-free and antibiotic-free fresh medium containing 0.5 mg/mL MTT was added to each well. The plates were incubated for 3 h in an incubator at 37 °C and 5% CO2. After incubation, the medium was removed, the cells were washed with 100 µL of PBS, and 100 µL of DMSO was added to each well to dissolve the purple formazan. The plate was shaken for 3 min and the absorbance was read at 570 nm (BioTek Synergy H1 microplate reader). Cell viability was calculated from the mean of the OD readings. Based on the dose–response curve, IC50 values were calculated (MS Excel). […] Therapeutic index (TI) results were calculated as the ratio of the IC50 of physiological cells to the IC50 of tumor cells.
(Tetrazolium dyes change colour on reduction, which living cells bring about.)

The test system of another assay is WS1 (fibroblasts). In words: MTT antiproliferative activity assay. The class given is cell-based, human. To be noted: for concentration at which a statistically significant decrease in viability was observed: tested 1–500 µM. On the procedure: as §1, §2
A further assay relates to PC3 (prostate cancer). Nature of the assay: MTT antiproliferative activity assay. As to conditions: for TI after 24h / TI after 48h: IC50 WS1 / IC50 PC3. It is filed as cell-based, human. The protocol: as §1, §2
A further assay concerns ALDH1A1. In words: ALDH1A1 concentration by ELISA in Du145 cells. The class given is cell-based, human. On the procedure:
The effect of compounds WZ1–WZ4 on ALDHA1 levels was investigated (Figure 10). The Du145, HepG2 and 769-P cell lines were treated with the calculated IC25 values for each compound.
Selected cell lines, viz HepG2, Du145 and 769-P, were seeded into 6-well plates and incubated for 24 h after seeding with compounds at a concentration equal to IC25. After a further 24 h or 48 h, cells were detached with trypsin and centrifuged. The resulting cell pellet was resuspended in 0.5 mL PBS. The samples were then sonicated, and protein was determined using the Bradford method (Bio-rad; Hercules, CA, USA). Samples were equilibrated to 10 mg/mL of protein, and ALDH1A1 was determined in the samples prepared in this way. ALDH1A1 determination was performed using an ELISA (SEE824Hu; Cloud Clone Corp., Katy, TX, USA), according to the manufacturer’s protocol.
A general note: In an ELISA, binding on a coated surface is turned into a signal by an enzyme label.

Consider `O=S(=O)(NNC(=S)NC1CCCCC1)c1ccccc1` [WZ1, 2-(Benzenesulfonyl)-N-Cyclohexylhydrazine-1-Carbothioamide], for which, in the assay on Candida spp. (reference Candida spp.), the anticandidal bioactivity class result is on record as “no anticandidal bioactivity”. Further, the decrease in viability in assay [1] (24 h, 1 µM) is given as ~ 16%; in assay [1] (48 h, 50 µM), ~ 6%; in the assay with PC3 (prostate cancer) (PC3, 24 h, 50 µM) it was ~ 11%. Moreover, the “TI after 24h” value is given as 14.043 in assay [1] (24 h) and 18.426 in the assay with PC3 (prostate cancer) (24 h). The “TI after 48h” value in assay [1] (48 h) was found to be 0.952; with PC3 (prostate cancer) (48 h), 1.521. Also, the “concentration at which a statistically significant decrease in viability was observed” value turned out to be 200 µM with WS1 (fibroblasts) (24 h); 200 µM in the assay with WS1 (fibroblasts) (48 h); 10 µM in the assay on PC3 (prostate cancer) (PC3, 48 h, tested 1–500 µM).
As to `CCCCNC(=S)NNS(=O)(=O)c1ccccc1` [WZ2, 2-(Benzenesulfonyl)-N-Butylhydrazine-1-Carbothioamide], the anticandidal bioactivity class result in the assay on Candida spp. (reference Candida spp.) was “no anticandidal bioactivity”. For the same compound, the decrease in viability in assay [1] (24 h, 1 µM) is listed as ~ 8%; in assay [1] (48 h, 1 µM), ~ 6%; in the assay with WS1 (fibroblasts) (48 h, 200 µM), ~ 17%; in the assay on WS1 (fibroblasts) (48 h, 500 µM), ~ 23%. In addition, the entries for the “TI after 24h” value (in assay [1] (24 h); with PC3 (prostate cancer) (24 h)) were 1,905,977,431.260 and 289,230,463.397, respectively. Also, the “TI after 48h” value in assay [1] (48 h) is 0.368; with PC3 (prostate cancer) (48 h), 224,184.286. Also, the “concentration at which a statistically significant decrease in viability was observed” value in the assay with WS1 (fibroblasts) (24 h) was “no reduction in viability”. Moreover, the “viability (reduced to)” value with PC3 (prostate cancer) (PC3, 24 h, 200 µM) is ~ 82%; in the assay on PC3 (prostate cancer) (PC3, 48 h, 50 µM), ~ 88%. The “ALDH1A1 concentration compared to control” value was “increased” in the assay on ALDH1A1 (compound at IC25, 24 h) and “decrease; also recorded: significantly reduced” in the assay on ALDH1A1 (compound at IC25, 48 h).
With `CCCCCCNC(=S)NNS(=O)(=O)c1ccccc1` [WZ3, 2-(Benzenesulfonyl)-N-Hexylhydrazine-1-Carbothioamide], the MIC lay within 250 to 500 µg/mL (≈ 792 to 1580 µM) with Candida spp. (C. albicans and C. krusei); 125 to 2000 µg/mL (≈ 396 to 6340 µM) against Candida spp. (reference Candida spp.). Moreover, in the assay with Candida spp., the MFC was in the range of 500 to 2000 µg/mL (≈ 1580 to 6340 µM). The MFC/MIC in the assay on Candida spp. was 1–4. The decrease in viability is recorded as ~ 9% in assay [1] (24 h, 1 µM); ~ 9% in assay [1] (48 h, 1 µM); ~ 12% in the assay on WS1 (fibroblasts) (24 h, 1 µM); ~ 64% with WS1 (fibroblasts) (48 h, 500 µM); ~ 11% in the assay on PC3 (prostate cancer) (PC3, 48 h, 200 µM). The figures for the “TI after 24h” value (in assay [1] (24 h); in the assay on PC3 (prostate cancer) (24 h)) were 1.169 and 2.291, respectively. In assay [1] (48 h), the “TI after 48h” value is reported as 1.284. Also, the “concentration at which a statistically significant decrease in viability was observed” value was 1 to 500 µM in the assay on WS1 (fibroblasts) (24 h) and “no significant change in viability” with WS1 (fibroblasts) (48 h). Besides, in the assay with PC3 (prostate cancer) (PC3, 24 h, 50 µM), the “viability (reduced to)” value is ~ 76%. Moreover, the “ALDH1A1 concentration compared to control” value with ALDH1A1 (compound at IC25, 48 h) is given as “decrease; also recorded: significantly reduced”.
Turning to `CNC(=S)NNS(=O)(=O)c1ccccc1` [WZ4, 2-(Benzenesulfonyl)-N-Methylhydrazine-1-Carbothioamide], the MIC in the assay on Candida spp. (C. albicans and C. krusei) is 250 to 500 µg/mL (≈ 1020 to 2040 µM); in the assay with Candida spp. (reference Candida spp.) it was 125 to 2000 µg/mL (≈ 510 to 8150 µM). Also, in the assay with Candida spp., the MFC was in the range of 500 to 2000 µg/mL (≈ 2040 to 8150 µM). Further, the MFC/MIC with Candida spp. is on record as 1–4. Besides, the decrease in viability in assay [1] (24 h, 1 µM) is reported as ~ 7%; in assay [1] (24 h, across 1–500 µM), 7–84%; in assay [1] (48 h, 1 µM), ~ 12%; in assay [1] (48 h, across 1–500 µM), 12–92%; in the assay with WS1 (fibroblasts) (24 h, all concentrations tested (1–500 µM)), 10–52%; in the assay with WS1 (fibroblasts) (48 h, 200 µM) it was ~ 15%. Further, the decrease in viability is reported as ~ 27% in the assay with PC3 (prostate cancer) (PC3, 24 h, 50 µM) and ~ 32% with PC3 (prostate cancer) (PC3, 48 h, 200 µM). Besides, the “TI after 24h” value in assay [1] (24 h) is 4.537; with PC3 (prostate cancer) (24 h), 0.920 and < 1. For the same compound, in assay [1] (48 h), the “TI after 48h” value stood at 7.390. Besides, the “concentration at which a statistically significant decrease in viability was observed” value with WS1 (fibroblasts) (24 h) was in the range of 1 to 500 µM. In addition, the “ALDH1A1 concentration compared to control” value in the assay with ALDH1A1 (compound at IC25, 24 h) is on record as “decrease”; in the assay with ALDH1A1 (compound at IC25, 48 h), “decrease; also recorded: significantly reduced”.
